Laboratory results: ChEMBL document CHEMBL5291721, “A preclinical secondary pharmacology resource illuminates target-adverse drug reaction associations of marketed drugs” (Nat Commun, 2023)

Tests used:
[1] = molecular target: Growth hormone secretagogue receptor type 1 (Homo sapiens, UniProt Q92847)
[2] = molecular target: T1, Prostaglandin G/H synthase 1 (Rattus norvegicus, UniProt Q63921); format: functional
T1 sequence (Q63921 whole entry): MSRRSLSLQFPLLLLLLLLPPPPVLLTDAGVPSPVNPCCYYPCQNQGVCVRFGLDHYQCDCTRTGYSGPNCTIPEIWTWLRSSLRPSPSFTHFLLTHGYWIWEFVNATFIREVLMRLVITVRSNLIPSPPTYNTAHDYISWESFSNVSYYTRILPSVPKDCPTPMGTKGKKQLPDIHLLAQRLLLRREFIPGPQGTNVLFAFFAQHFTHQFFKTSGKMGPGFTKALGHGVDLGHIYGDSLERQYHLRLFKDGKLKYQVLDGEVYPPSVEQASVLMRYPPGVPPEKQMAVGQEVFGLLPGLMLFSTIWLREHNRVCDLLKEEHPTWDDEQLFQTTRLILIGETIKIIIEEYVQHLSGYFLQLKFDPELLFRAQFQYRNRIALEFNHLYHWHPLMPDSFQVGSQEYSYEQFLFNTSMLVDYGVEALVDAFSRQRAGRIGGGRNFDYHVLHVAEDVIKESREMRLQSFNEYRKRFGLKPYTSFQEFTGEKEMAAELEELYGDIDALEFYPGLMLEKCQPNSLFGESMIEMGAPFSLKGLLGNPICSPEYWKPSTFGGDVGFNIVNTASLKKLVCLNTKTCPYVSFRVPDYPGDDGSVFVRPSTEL

[3] = molecular target: 5-hydroxytryptamine receptor 2A (Homo sapiens, UniProt P28223); format: functional, cell-based
[4] = molecular target: T2, Equilibrative nucleoside transporter 1 (Homo sapiens, UniProt Q99808)
T2 sequence (Q99808 whole entry): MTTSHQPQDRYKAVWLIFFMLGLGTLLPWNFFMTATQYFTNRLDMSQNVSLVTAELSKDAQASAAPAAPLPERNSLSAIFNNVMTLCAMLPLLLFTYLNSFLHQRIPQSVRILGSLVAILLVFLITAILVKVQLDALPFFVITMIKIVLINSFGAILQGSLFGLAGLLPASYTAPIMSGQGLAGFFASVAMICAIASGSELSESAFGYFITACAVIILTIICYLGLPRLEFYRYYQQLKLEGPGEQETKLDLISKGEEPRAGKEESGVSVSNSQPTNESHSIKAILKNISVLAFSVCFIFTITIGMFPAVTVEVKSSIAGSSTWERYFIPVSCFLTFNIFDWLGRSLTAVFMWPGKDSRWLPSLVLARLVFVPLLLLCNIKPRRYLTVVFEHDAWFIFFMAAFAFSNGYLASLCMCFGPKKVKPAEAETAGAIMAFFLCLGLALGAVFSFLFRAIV

Vasopressin V2 receptor = Vasopressin V2 receptor (Homo sapiens, UniProt P30518)
[5] = molecular target: cGMP-inhibited 3',5'-cyclic phosphodiesterase 3A (Homo sapiens, UniProt Q14432); format: functional
[6] = molecular target: Neuronal acetylcholine receptor subunit alpha-4 (Homo sapiens, UniProt P43681)
[7] = molecular target: T3, Amine oxidase [flavin-containing] A (Homo sapiens, UniProt P21397); format: functional
T3 sequence (P21397 whole entry): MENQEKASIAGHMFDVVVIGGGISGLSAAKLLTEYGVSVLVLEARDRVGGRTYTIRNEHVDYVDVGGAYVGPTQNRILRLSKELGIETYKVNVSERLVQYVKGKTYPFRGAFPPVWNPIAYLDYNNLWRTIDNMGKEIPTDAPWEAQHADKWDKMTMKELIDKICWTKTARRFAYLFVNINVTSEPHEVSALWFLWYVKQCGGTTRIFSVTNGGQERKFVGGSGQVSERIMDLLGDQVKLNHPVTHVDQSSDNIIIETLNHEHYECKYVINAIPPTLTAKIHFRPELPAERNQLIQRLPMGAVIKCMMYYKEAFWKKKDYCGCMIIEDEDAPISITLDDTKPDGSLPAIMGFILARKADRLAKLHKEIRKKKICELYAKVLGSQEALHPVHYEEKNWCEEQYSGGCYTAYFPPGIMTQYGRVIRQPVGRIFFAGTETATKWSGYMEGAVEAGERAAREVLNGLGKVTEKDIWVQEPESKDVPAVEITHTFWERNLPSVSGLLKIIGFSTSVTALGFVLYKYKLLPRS

Adenosine receptor A2a = Adenosine receptor A2a (Homo sapiens, UniProt P29274)
D(3) dopamine receptor = D(3) dopamine receptor (Homo sapiens, UniProt P35462)
[8] = molecular target: T4, Neuropeptide Y receptor type 1 (Homo sapiens, UniProt P25929)
T4 sequence (P25929 whole entry): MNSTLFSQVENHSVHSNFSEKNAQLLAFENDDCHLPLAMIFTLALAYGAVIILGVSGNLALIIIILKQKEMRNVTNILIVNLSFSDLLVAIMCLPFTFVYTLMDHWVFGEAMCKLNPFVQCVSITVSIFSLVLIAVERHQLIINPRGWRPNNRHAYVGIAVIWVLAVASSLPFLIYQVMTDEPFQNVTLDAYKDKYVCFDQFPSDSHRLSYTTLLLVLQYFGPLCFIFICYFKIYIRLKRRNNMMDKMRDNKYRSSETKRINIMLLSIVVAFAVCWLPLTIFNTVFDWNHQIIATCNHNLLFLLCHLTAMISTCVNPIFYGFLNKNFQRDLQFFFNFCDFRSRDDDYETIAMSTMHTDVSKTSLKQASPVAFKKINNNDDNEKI
Note: assay procedure not described here.

Chain of cGMP-inhibited 3',5'-cyclic phosphodiesterase 3A (Q14432 whole entry): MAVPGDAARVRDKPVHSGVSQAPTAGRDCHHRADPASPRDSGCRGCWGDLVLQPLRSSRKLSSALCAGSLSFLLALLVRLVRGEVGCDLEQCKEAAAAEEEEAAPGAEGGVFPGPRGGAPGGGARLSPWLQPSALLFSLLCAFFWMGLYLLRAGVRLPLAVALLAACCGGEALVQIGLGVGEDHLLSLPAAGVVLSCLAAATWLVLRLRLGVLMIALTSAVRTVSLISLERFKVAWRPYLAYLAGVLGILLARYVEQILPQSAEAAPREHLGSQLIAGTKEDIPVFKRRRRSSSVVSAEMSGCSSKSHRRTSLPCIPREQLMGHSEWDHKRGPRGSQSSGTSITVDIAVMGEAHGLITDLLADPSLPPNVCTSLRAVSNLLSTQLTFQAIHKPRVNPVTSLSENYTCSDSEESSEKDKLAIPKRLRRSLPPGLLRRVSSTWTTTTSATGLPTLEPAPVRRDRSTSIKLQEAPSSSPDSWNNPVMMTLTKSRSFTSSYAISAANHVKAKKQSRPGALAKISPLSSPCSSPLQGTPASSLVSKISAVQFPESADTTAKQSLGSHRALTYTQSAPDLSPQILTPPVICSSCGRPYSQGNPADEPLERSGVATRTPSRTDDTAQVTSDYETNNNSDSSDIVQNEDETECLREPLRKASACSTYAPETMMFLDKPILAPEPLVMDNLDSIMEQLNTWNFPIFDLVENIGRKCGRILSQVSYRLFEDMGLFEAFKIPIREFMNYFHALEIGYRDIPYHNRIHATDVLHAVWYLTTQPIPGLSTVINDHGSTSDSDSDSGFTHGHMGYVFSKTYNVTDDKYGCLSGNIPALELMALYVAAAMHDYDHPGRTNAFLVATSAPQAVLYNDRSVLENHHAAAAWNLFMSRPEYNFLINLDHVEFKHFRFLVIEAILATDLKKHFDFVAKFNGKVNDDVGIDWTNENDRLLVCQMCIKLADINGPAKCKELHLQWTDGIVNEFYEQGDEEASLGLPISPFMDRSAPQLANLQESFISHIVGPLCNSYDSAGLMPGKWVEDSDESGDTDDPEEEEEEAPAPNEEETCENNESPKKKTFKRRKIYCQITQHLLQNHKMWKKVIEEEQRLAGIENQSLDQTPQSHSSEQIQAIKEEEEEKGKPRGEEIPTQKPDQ
Chain of Adenosine receptor A2a (P29274 whole entry): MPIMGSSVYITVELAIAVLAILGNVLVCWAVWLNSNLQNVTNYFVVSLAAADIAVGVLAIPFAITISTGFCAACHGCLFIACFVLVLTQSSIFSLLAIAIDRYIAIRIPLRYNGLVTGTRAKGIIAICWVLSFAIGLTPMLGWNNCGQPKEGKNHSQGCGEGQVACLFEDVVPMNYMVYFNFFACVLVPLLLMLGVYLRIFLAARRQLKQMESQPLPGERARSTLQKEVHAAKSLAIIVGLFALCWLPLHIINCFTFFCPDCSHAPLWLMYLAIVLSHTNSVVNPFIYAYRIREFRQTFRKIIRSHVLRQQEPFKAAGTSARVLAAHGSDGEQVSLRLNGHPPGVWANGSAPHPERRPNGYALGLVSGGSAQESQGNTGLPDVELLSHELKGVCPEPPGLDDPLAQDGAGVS
Chain of Neuronal acetylcholine receptor subunit alpha-4 (P43681 whole entry): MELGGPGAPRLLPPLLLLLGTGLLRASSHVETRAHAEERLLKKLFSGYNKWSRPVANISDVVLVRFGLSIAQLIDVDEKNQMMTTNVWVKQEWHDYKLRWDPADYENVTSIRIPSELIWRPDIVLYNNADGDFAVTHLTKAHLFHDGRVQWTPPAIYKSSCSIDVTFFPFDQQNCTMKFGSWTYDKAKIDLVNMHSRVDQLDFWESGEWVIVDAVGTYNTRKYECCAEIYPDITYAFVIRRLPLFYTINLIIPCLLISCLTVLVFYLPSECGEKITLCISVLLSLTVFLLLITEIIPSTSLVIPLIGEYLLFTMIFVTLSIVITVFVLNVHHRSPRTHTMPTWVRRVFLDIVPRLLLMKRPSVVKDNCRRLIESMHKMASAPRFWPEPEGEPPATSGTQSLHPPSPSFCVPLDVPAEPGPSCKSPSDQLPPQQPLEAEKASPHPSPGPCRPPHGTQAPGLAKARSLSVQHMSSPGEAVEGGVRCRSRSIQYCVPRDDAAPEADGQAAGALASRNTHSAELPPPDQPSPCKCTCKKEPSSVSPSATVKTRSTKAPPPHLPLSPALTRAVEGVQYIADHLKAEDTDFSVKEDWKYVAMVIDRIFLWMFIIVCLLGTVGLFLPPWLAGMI
Chain of Growth hormone secretagogue receptor type 1 (Q92847 whole entry): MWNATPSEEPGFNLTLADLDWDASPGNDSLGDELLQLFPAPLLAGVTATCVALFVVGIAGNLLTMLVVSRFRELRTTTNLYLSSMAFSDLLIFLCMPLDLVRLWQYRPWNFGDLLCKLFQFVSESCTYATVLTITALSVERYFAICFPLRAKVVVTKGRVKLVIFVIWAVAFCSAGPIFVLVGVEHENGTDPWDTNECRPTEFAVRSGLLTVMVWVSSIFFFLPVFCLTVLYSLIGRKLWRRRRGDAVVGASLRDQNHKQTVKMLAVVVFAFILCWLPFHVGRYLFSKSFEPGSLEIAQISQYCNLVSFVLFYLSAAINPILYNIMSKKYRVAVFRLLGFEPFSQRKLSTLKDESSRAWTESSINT
Chain of Vasopressin V2 receptor (P30518 whole entry): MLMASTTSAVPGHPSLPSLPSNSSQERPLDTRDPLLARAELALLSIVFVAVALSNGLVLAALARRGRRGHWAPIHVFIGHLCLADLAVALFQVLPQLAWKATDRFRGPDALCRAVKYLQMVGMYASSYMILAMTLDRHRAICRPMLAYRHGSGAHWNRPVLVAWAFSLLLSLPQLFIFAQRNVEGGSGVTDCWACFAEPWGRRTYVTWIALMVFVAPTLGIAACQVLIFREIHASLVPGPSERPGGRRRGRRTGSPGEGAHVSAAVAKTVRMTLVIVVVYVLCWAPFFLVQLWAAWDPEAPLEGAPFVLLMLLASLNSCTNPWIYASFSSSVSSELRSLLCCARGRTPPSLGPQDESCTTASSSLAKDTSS
Chain of D(3) dopamine receptor (P35462 whole entry): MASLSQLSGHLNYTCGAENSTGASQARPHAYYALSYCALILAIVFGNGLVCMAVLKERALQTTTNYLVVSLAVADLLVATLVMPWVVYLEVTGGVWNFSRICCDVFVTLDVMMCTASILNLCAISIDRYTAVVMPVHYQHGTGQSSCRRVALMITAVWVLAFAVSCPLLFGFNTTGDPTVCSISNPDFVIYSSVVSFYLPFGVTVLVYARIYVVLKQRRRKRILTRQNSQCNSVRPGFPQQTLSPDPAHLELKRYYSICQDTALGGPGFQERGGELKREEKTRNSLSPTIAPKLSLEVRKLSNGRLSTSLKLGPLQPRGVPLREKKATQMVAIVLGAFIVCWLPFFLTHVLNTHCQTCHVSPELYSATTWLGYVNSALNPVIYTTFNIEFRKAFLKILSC
Chain of 5-hydroxytryptamine receptor 2A (P28223 whole entry): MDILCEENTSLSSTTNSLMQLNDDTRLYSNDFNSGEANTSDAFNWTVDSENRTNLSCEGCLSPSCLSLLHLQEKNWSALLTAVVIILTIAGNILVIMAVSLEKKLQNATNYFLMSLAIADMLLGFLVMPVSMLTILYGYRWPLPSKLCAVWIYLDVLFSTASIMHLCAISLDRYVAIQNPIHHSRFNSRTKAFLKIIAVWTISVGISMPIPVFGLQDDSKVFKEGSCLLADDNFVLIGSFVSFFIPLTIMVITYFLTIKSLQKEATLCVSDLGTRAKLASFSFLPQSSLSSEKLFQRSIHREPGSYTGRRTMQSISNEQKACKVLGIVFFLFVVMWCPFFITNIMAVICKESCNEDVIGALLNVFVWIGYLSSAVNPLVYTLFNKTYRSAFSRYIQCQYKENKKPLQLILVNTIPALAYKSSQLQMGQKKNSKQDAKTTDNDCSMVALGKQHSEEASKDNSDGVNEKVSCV

Structure (SMILES)	AC50 [1] [µM]	AC50 [2] [µM]	AC50 [3] [µM]	AC50 [4] [µM]	AC50 (Vasopressin V2 receptor) [µM]	AC50 [5] [µM]	AC50 [6] [µM]	AC50 [7] [µM]	AC50 (Adenosine receptor A2a) [µM]	AC50 (D(3) dopamine receptor) [µM]	AC50 [8] [µM]
CC(=O)OCC(=O)[C@@]12OC3(CCCC3)O[C@@H]1C[C@H]1[C@@H]3CCC4=CC(=O)C=C[C@]4(C)[C@@]3(F)[C@@H](O)C[C@@]12C [AMCINONIDE]	> 10	> 10	> 10	> 10	> 10	> 30	> 10	> 10	> 10	> 30	> 10
NC(CO)C(=O)NNCc1ccc(O)c(O)c1O (configuration not stated) [BENSERAZIDE]	> 30	> 30	> 30	> 30	> 30	> 30	> 10	> 10	> 30	> 30	5.67
CN(C)C(=O)OC1N=C(c2ccccc2)c2cc(Cl)ccc2N(C)C1=O (configuration not stated) [CAMAZEPAM]	> 30	> 30	> 30	> 30	> 30	> 30	> 10	> 10	> 30	> 10	> 30
CCCCCOC(=O)Nc1nc(=O)n([C@@H]2O[C@H](C)[C@@H](O)[C@H]2O)cc1F [CAPECITABINE]	> 30	> 30	> 30	> 30	> 30	> 30	> 30	> 30	> 30	> 30	> 30
CC(C)C(=O)OCC(=O)[C@@]12O[C@H](C3CCCCC3)O[C@@H]1C[C@H]1[C@@H]3CCC4=CC(=O)C=C[C@]4(C)[C@H]3[C@@H](O)C[C@@]12C [CICLESONIDE]	> 10	> 10	> 10	> 10	> 10	> 30	> 10	> 10	> 30	> 30	> 10
CCOC(=O)[C@H](CCc1ccccc1)N[C@H]1CCCN2CCC[C@@H](C(=O)O)N2C1=O [CILAZAPRIL]	> 30	> 30	> 30	> 30	> 30	> 30	> 30	> 30	> 30	> 30	> 30
CCOc1cc(N)c([N+](=O)[O-])cc1C(=O)NC1CCN(CC2CC=CCC2)CC1 (configuration not stated) [CINITAPRIDE]	> 30	> 30	0.07	> 30	> 30	> 30	15	> 30	> 30	0.038	> 30
CN1C(=O)CC(=O)N(c2ccccc2)c2cc(Cl)ccc21 [CLOBAZAM]	> 10	> 10	> 10	> 10	> 10	> 30	> 10	> 10	> 10	> 30	> 10
COC(=O)[C@H]1[C@@H](OC(=O)c2ccccc2)C[C@@H]2CC[C@H]1N2C [COCAINE]	> 30	> 30	> 30	> 30	> 30	> 30	> 30	19	> 30	> 30	> 30
CCCCOc1cc(C(=O)NCCN(CC)CC)c2ccccc2n1 [DIBUCAINE]	15.8	> 10	> 10	> 10	> 30	> 30	> 30	> 10	> 30	> 30	> 30
CCCCCCCCCCCC[N+](C)(C)CCOc1ccccc1 [DOMIPHEN]	5.7	> 30	0.94	> 30	7.3	> 30	> 30	28	> 30	2.1	4.4
C#CC1(OC(N)=O)CCCCC1 [ETHINAMATE]	> 10	> 10	> 10	> 10	> 10	> 30	> 10	> 10	> 10	> 30	> 10
O=C1CN=C(c2ccccc2)c2cc(Cl)ccc2N1CC(F)(F)F [HALAZEPAM]	> 30	> 30	> 30	> 30	> 30	> 30	> 30	> 30	> 30	> 30	> 30
CCC1(C2=CCCCCC2)C(=O)NC(=O)NC1=O [HEPTABARBITAL]	> 10	> 10	> 10	> 10	> 10	> 30	> 10	> 10	> 10	> 30	> 10
CCCCCN(C)CCC(O)(P(=O)(O)O)P(=O)(O)O [IBANDRONIC ACID]	> 30	> 30	> 30	> 30	> 30	1.9	> 30	> 30	> 30	> 30	> 30
C1=Cc2cccc(OCC3CNCCO3)c2C1 (configuration not stated) [INDELOXAZINE]	> 30	> 30	17	> 30	> 30	> 30	> 30	> 30	> 30	> 30	> 30
O=C(CCCCC(=O)Nc1c(I)cc(I)c(C(=O)O)c1I)Nc1c(I)cc(I)c(C(=O)O)c1I [IODIPAMIDE]	> 10	> 10	> 10	> 10	> 10	> 30	> 10	> 10	> 10	> 30	> 10
